Reference: patent US9920032B2, “Heterocyclic compounds useful as pim kinase inhibitors” (Incyte Corporation, priority 2015, dated 2018)

How the values were obtained:
Format in all cases: biochemical
Pim-2 = Pim-2 (Homo sapiens (Human), UniProt Q9P1W9); assay: Pim-2 kinase assay; settings: 1 mM ATP; read-out: PIM2 IC50
Outline: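 TR-FRET assay with 1 nM enzyme, 0.05 μM fluorescein-CREBtide and 1 mM ATP in Tris pH 7.5 buffer with MgCl2, DTT, BSA and Tween-20, run 2 h at 25° C. Stopped with EDTA and Tb-labelled anti-CREB pSer133 antibody, then read after 30 min at room temperature.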

Pim-1 = Pim-1 (Homo sapiens (Human), UniProt P11309); assay: Pim-1 kinase assay; settings: 1 mM ATP; read-out: PIM1 IC50
Sequence of Pim-1 (P11309 whole entry): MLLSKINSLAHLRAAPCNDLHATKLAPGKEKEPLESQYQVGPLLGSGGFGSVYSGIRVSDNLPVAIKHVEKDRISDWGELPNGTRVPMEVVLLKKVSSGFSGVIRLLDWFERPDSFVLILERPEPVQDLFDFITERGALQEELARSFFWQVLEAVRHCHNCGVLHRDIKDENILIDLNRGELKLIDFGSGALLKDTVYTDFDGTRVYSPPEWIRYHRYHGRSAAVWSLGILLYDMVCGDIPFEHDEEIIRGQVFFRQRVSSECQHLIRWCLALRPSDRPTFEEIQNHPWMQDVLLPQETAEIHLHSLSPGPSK
Outline: (§1)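 Biotin-BAD peptide (0.05 μM) phosphorylated with 1 mM ATP by 2.5 pM Pim-1 or 1.25 pM Pim-3 in Tris pH 7.5/MgCl2/DTT buffer, 1 h at 25° C. EDTA stop; phospho-BAD (Ser112) antibody with streptavidin donor and Protein-A acceptor beads, 1 h dark at room temperature before AlphaScreen-type bead read.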

Pim-3 = Pim-3 (Homo sapiens (Human), UniProt Q86V86); assay: Pim-3 kinase assay; settings: 1 mM ATP; read-out: PIM3 IC50
Outline: as §1

Sequence of Pim-2 (Q9P1W9 whole entry): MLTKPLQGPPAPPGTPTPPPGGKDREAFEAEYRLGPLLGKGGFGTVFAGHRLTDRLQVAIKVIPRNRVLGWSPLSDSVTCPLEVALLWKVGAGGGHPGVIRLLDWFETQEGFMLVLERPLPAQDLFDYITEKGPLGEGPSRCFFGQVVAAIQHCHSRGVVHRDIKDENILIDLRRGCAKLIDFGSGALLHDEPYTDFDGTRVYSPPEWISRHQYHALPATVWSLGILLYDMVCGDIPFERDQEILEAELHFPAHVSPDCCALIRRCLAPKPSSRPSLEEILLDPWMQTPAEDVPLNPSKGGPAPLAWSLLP

| Structure (SMILES) | IC50 (Pim-2) [µM] | IC50 (Pim-1) [µM] | IC50 (Pim-3) [µM] |
| --- | --- | --- | --- |
| C[C@@H]1C[C@H](N)C[C@H](c2ccncc2NC(=O)c2ccc(F)c3cc(Nc4ccccc4C#N)cnc23)C1 [Example 129, N-(4-((1R,3S,5S)-3-Amino-5-methylcyclohexyl)pyridin-3-yl)-3-(2-cyanophenylamino)-5-fluoroquinoline-8-carboxamide] | 0.1 to 1 | ≤ 0.01 | ≤ 0.01 |
| C[C@@H]1C[C@H](N)C[C@H](c2ccncc2NC(=O)c2ccc(F)c3cc(N4CCCc5ccccc54)cnc23)C1 [Example 130, N-(4-((1R,3S,5S)-3-Amino-5-methylcyclohexyl)pyridin-3-yl)-5′-fluoro-3,4-dihydro-2H-1,3′-biquinoline-8′-carboxamide] | 0.1 to 1 | ≤ 0.01 | ≤ 0.01 |
| COC1CCN(c2cnc3c(C(=O)Nc4cnccc4[C@@H]4C[C@H](C)C[C@H](N)C4)ccc(F)c3c2)CC1 [Example 131, N-(4-((1R,3S,5S)-3-Amino-5-methylcyclohexyl)pyridin-3-yl)-5-fluoro-3-(4-methoxypiperidin-1-yl)quinoline-8-carboxamide] | 0.1 to 1 | ≤ 0.01 | ≤ 0.01 |
| C[C@@H]1C[C@H](N)C[C@H](c2ccncc2NC(=O)c2ccc(F)c3cc(N4CCOC(CO)C4)cnc23)C1 (stereo partly drawn) [Example 132, N-(4-((1R,3S,5S)-3-Amino-5-methylcyclohexyl)pyridin-3-yl)-5-fluoro-3-(2-(hydroxymethyl)morpholino)quinoline-8-carboxamide] | 0.1 to 1 | ≤ 0.01 | ≤ 0.01 |
| COCCN1CCN(c2cnc3c(C(=O)Nc4cnccc4[C@@H]4C[C@H](C)C[C@H](N)C4)ccc(F)c3c2)CC1=O [Example 133, N-(4-((1R,3S,5S)-3-Amino-5-methylcyclohexyl)pyridin-3-yl)-5-fluoro-3-(4-(2-methoxyethyl)-3-oxopiperazin-1-yl)quinoline-8-carboxamide] | 0.1 to 1 | ≤ 0.01 | ≤ 0.01 |
| C[C@@H]1C[C@H](N)C[C@H](c2ccncc2NC(=O)c2ccc(F)c3cc(N4CCn5cnnc5C4)cnc23)C1 [Example 134, N-(4-((1R,3S,5S)-3-Amino-5-methylcyclohexyl)pyridin-3-yl)-3-(5,6-dihydro-[1,2,4]triazolo[4,3-a]pyrazin-7(8H)-yl)-5-fluoroquinoline-8-carboxamide] | 0.1 to 1 | ≤ 0.01 | ≤ 0.01 |
| C[C@@H]1C[C@H](N)C[C@H](c2ccncc2NC(=O)c2ccc(F)c3cc(N4CCCN(C)C(=O)C4)cnc23)C1 [Example 135, N-(4-((1R,3S,5S)-3-Amino-5-methylcyclohexyl)pyridin-3-yl)-5-fluoro-3-(4-methyl-3-oxo-1,4-diazepan-1-yl)quinoline-8-carboxamide] | 0.1 to 1 | ≤ 0.01 | ≤ 0.01 |
| C[C@@H]1C[C@H](N)C[C@H](c2ccncc2NC(=O)c2ccc(F)c3cc(N4C5CCC4CC5)cnc23)C1 [Example 136, N-(4-((1R,3S,5S)-3-Amino-5-methylcyclohexyl)pyridin-3-yl)-3-(7-azabicyclo[2.2.1]heptan-7-yl)-5-fluoroquinoline-8-carboxamide] | ≤ 0.1 | ≤ 0.01 | ≤ 0.01 |
| C[C@@H]1C[C@H](N)C[C@H](c2ccncc2NC(=O)c2ccc(F)c3cc(N4CCCc5cccc(F)c54)cnc23)C1 [Example 137, N-(4-((1R,3S,5S)-3-Amino-5-methylcyclohexyl)pyridin-3-yl)-5′,8-difluoro-3,4-dihydro-2H-1,3′-biquinoline-8′-carboxamide] | ≤ 0.1 | ≤ 0.01 | ≤ 0.01 |
| C[C@@H]1C[C@H](N)C[C@H](c2ccncc2NC(=O)c2ccc(F)c3cc(N4CCCS4(=O)=O)cnc23)C1 [Example 138, N-(4-((1R,3S,5S)-3-Amino-5-methylcyclohexyl)pyridin-3-yl)-3-(1,1-dioxidoisothiazolidin-2-yl)-5-fluoroquinoline-8-carboxamide] | 0.1 to 1 | ≤ 0.01 | ≤ 0.01 |
| C[C@@H]1C[C@H](N)C[C@H](c2ccncc2NC(=O)c2ccc(F)c3cc(N(C)c4ncccc4OC(F)F)cnc23)C1 [Example 139, N-(4-((1R,3S,5S)-3-Amino-5-methylcyclohexyl)pyridin-3-yl)-3-((3-(difluoromethoxy)pyridin-2-yl)(methyl)amino)-5-fluoroquinoline-8-carboxamide] | ≤ 0.1 | ≤ 0.01 | ≤ 0.01 |
| C[C@@H]1C[C@H](N)C[C@H](c2ccncc2NC(=O)c2ccc(F)c3cc(N(C)C4CCCC4C#N)cnc23)C1 (stereo partly drawn) [Example 140, N-(4-((1R,3S,5S)-3-Amino-5-methylcyclohexyl)pyridin-3-yl)-3-((2-cyanocyclopentyl)(methyl)amino)-5-fluoroquinoline-8-carboxamide] | ≤ 0.1 | ≤ 0.01 | ≤ 0.01 |
| Cc1ccc(N(C)c2cnc3c(C(=O)Nc4cnccc4[C@@H]4C[C@H](C)C[C@H](N)C4)ccc(F)c3c2)c(C)n1 [Example 141, N-(4-((1R,3S,5S)-3-Amino-5-methylcyclohexyl)pyridin-3-yl)-3-((2,6-dimethylpyridin-3-yl)(methyl)amino)-5-fluoroquinoline-8-carboxamide] | ≤ 0.1 | ≤ 0.01 | ≤ 0.01 |
| C[C@@H]1C[C@H](N)C[C@H](c2ccncc2NC(=O)c2ccc(F)c3cc(N(C)c4ncccc4F)cnc23)C1 [Example 142, N-(4-((1R,3S,5S)-3-Amino-5-methylcyclohexyl)pyridin-3-yl)-5-fluoro-3-((3-fluoropyridin-2-yl)(methyl)amino)quinoline-8-carboxamide] | ≤ 0.1 | ≤ 0.01 | ≤ 0.01 |
| C[C@@H]1C[C@H](N)C[C@H](c2ccncc2NC(=O)c2ccc(F)c3cc(N(C)c4cnccc4C(F)(F)F)cnc23)C1 [Example 143, N-(4-((1R,3S,5S)-3-Amino-5-methylcyclohexyl)pyridin-3-yl)-5-fluoro-3-(methyl(4-(trifluoromethyl)pyridin-3-yl)amino)quinoline-8-carboxamide] | ≤ 0.1 | ≤ 0.01 | ≤ 0.01 |
| COc1ccc(N(C)c2cnc3c(C(=O)Nc4cnccc4[C@@H]4C[C@H](C)C[C@H](N)C4)ccc(F)c3c2)c(C)n1 [Example 144, N-(4-((1R,3S,5S)-3-Amino-5-methylcyclohexyl)pyridin-3-yl)-5-fluoro-3-((6-methoxy-2-methylpyridin-3-yl)(methyl)amino)quinoline-8-carboxamide] | ≤ 0.1 | ≤ 0.01 | ≤ 0.01 |
| C[C@@H]1C[C@H](N)C[C@H](c2ccncc2NC(=O)c2ccc(F)c3cc(N(C)c4ccncc4F)cnc23)C1 [Example 145, N-(4-((1R,3S,5S)-3-Amino-5-methylcyclohexyl)pyridin-3-yl)-5-fluoro-3-((3-fluoropyridin-4-yl)(methyl)amino)quinoline-8-carboxamide] | ≤ 0.1 | ≤ 0.01 | ≤ 0.01 |
| Cc1ccncc1N(C)c1cnc2c(C(=O)Nc3cnccc3[C@@H]3C[C@H](C)C[C@H](N)C3)ccc(F)c2c1 [Example 146, N-(4-((1R,3S,5S)-3-Amino-5-methylcyclohexyl)pyridin-3-yl)-5-fluoro-3-(methyl(4-methylpyridin-3-yl)amino)quinoline-8-carboxamide] | ≤ 0.1 | ≤ 0.01 | ≤ 0.01 |
| CC1CCC1N(C)c1cnc2c(C(=O)Nc3cnccc3[C@@H]3C[C@H](C)C[C@H](N)C3)ccc(F)c2c1 (stereo partly drawn) [Example 147, N-(4-((1R,3S,5S)-3-Amino-5-methylcyclohexyl)pyridin-3-yl)-5-fluoro-3-(methyl(2-methylcyclobutyl)amino)quinoline-8-carboxamide] | ≤ 0.1 | ≤ 0.01 | ≤ 0.01 |
| COc1ccc(N(C)c2cnc3c(C(=O)Nc4cnccc4[C@@H]4C[C@H](C)C[C@H](N)C4)ccc(F)c3c2)cc1 [Example 148, N-(4-((1R,3S,5S)-3-Amino-5-methylcyclohexyl)pyridin-3-yl)-5-fluoro-3-((4-methoxyphenyl)(methyl)amino)quinoline-8-carboxamide] | ≤ 0.1 | ≤ 0.01 | ≤ 0.01 |
| Cc1nccnc1N(C)c1cnc2c(C(=O)Nc3cnccc3[C@@H]3C[C@H](C)C[C@H](N)C3)ccc(F)c2c1 [Example 149, N-(4-((1R,3S,5S)-3-Amino-5-methylcyclohexyl)pyridin-3-yl)-5-fluoro-3-(methyl(3-methylpyrazin-2-yl)amino)quinoline-8-carboxamide] | ≤ 0.1 | ≤ 0.01 | ≤ 0.01 |
| COc1ccncc1N(C)c1cnc2c(C(=O)Nc3cnccc3[C@@H]3C[C@H](C)C[C@H](N)C3)ccc(F)c2c1 [Example 150, N-(4-((1R,3S,5S)-3-Amino-5-methylcyclohexyl)pyridin-3-yl)-5-fluoro-3-((4-methoxypyridin-3-yl)(methyl)amino)quinoline-8-carboxamide] | ≤ 0.1 | ≤ 0.01 | ≤ 0.01 |
| C[C@@H]1C[C@H](N)C[C@H](c2ccncc2NC(=O)c2ccc(F)c3cc(N(C)C4CCCOC4)cnc23)C1 (stereo partly drawn) [Example 151] | ≤ 0.1 | ≤ 0.01 | ≤ 0.01 |
| COc1ccccc1N(C)c1cnc2c(C(=O)Nc3cnccc3[C@@H]3C[C@H](C)C[C@H](N)C3)ccc(F)c2c1 [Example 152, N-(4-((1R,3S,5S)-3-Amino-5-methylcyclohexyl)pyridin-3-yl)-5-fluoro-3-((2-methoxyphenyl)(methyl)amino)quinoline-8-carboxamide] | ≤ 0.1 | ≤ 0.01 | ≤ 0.01 |
